The source of these data is patent US9409905B2, “Antibacterial compounds and methods for use” (PTC THERAPEUTICS, INC., priority 2011, dated 2016).

Values after ≈ are worked out from the molar mass of the structure shown.

Assay [1] relates to E. coli LZ3111. The assay is described as follows: Antibacterial activity, MIC, quinolone resistant strain (Table 2). It is filed as cell-based. The following applies: Escherichia coli, LZ3111, read-out: MIC LZ3111. In a few lines: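 Microbroth dilution method; MIC (μg/mL) is the lowest drug concentration preventing macroscopically visible growth under test conditions.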
In assay [2] the test system is Staphylococcus aureus (S. aureus) 29213. The assay is described as follows: Antibacterial activity, microbroth dilution MIC (Table 1). It is filed as cell-based. The following applies: microbroth dilution, Gram-positive S. aureus 29213, read-out: MIC, 29213. The procedure, abridged: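 Lowest concentration stopping macroscopically visible growth under test conditions, by broth microdilution, defines the MIC (μg/mL).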

In assay [3] the test system is Escherichia coli (E. coli) BAS849. The description is as above. It is filed as cell-based. The settings on record: microbroth dilution, super sensitive Gram-negative E. coli BAS849, read-out: MIC, BAS849. In a few lines:
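Each strain is exposed to test compound in a microbroth dilution series; visible growth is scored macroscopically, and the lowest growth-free concentration is recorded as MIC in μg/mL.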

In assay [4] the test system is E. coli 25922. Described as above. In kind it is cell-based, Escherichia coli. The following applies: Escherichia coli; microbroth dilution; control Gram-negative E. coli 25922 strain; read-out: MIC, 25922. The procedure, abridged:
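Microbroth dilution was used. MIC, in μg/mL, is the lowest drug concentration preventing macroscopically visible growth under the test conditions.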

For `CCc1cc(C(=O)O)c(=O)[nH]c1-c1ccc2c(c1)cc(CN1C[C@H]3CCC[C@@H](NC)[C@H]3C1)n2C` [Cpd 148, 5-ethyl-6-(1-methyl-2-(((3aR,4R,7aS)-4-(methylamino)-1H-isoindol-2(3H,3aH,4H,5H,6H,7H,7aH)-yl)methyl)-1H-indol-5-yl)-2-oxo-1,2-dihydropyridine-3-carboxylic acid], the MIC is 12.5 to 150 µg/mL (≈ 27 to 324 µM) in assay [1], 12.5 to 150 µg/mL (≈ 27 to 324 µM) in assay [2], 1 to 3.5 µg/mL (≈ 2.16 to 7.57 µM) in assay [3] and 3.5 to 12.5 µg/mL (≈ 7.57 to 27 µM) in assay [4].

Turning to `CCc1cc(C(=O)O)c(=O)[nH]c1-c1ccc2c(c1)cc(CN1C[C@H]3CCC[C@@H](N(C)C)[C@H]3C1)n2C` [Cpd 149, 6-(2-(((3aR,4R,7aS)-4-(dimethylamino)-1H-isoindol-2(3H,3aH,4H,5H,6H,7H,7aH)-yl)methyl)-1-methyl-1H-indol-5-yl)-5-ethyl-2-oxo-1,2-dihydropyridine-3-carboxylic acid], the MIC in assay [1] was 12.5 to 150 µg/mL (≈ 26.2 to 315 µM); in assay [2], 12.5 to 150 µg/mL (≈ 26.2 to 315 µM); in assay [3] it was less than 1 µg/mL; in assay [4], 1 to 3.5 µg/mL (≈ 2.1 to 7.34 µM).

`CCc1cc(C(=O)O)c(=O)[nH]c1-c1ccc2c(c1)cc(CN)n2C` [Cpd 150, 6-(2-(aminomethyl)-1-methyl-1H-indol-5-yl)-5-ethyl-2-oxo-1,2-dihydropyridine-3-carboxylic acid]: the MIC in assay [1] is 12.5 to 150 µg/mL (≈ 38.4 to 461 µM); in assay [2], 12.5 to 150 µg/mL (≈ 38.4 to 461 µM); in assay [3], less than 1 µg/mL; in assay [4], 1 to 3.5 µg/mL (≈ 3.07 to 10.8 µM).

Consider `CCc1cc(C(=O)O)c(=O)[nH]c1-c1ccc2c(c1)cc1n2CCC1N1CCCC1` (centres unmarked) [Cpd 151, 5-ethyl-2-oxo-6-(1-(pyrrolidin-1-yl)-2,3-dihydro-1H-pyrrolo[1,2-a]indol-7-yl)-1,2-dihydropyridine-3-carboxylic acid], for which the minimum inhibitory concentration (MIC) in assay [1] was 12.5 to 150 µg/mL (≈ 31.9 to 383 µM); in assay [2], 12.5 to 150 µg/mL (≈ 31.9 to 383 µM); in assay [3], less than 1 µg/mL; in assay [4] it was 1 to 3.5 µg/mL (≈ 2.55 to 8.94 µM).

As to `CCc1cc(C(=O)O)c(=O)[nH]c1-c1ccc2c(c1)cc1n2CCC1N1CCC(N(C)C)C1` (centres unmarked) [Cpd 153, 6-(1-(3-(dimethylamino)pyrrolidin-1-yl)-2,3-dihydro-1H-pyrrolo[1,2-a]indol-7-yl)-5-ethyl-2-oxo-1,2-dihydropyridine-3-carboxylic acid], the minimum inhibitory concentration (MIC) in assay [1] was 12.5 to 150 µg/mL (≈ 28.8 to 345 µM); in assay [2], 12.5 to 150 µg/mL (≈ 28.8 to 345 µM); in assay [3], less than 1 µg/mL; in assay [4] it was 3.5 to 12.5 µg/mL (≈ 8.05 to 28.8 µM).

With `CCc1cc(C(=O)O)c(=O)[nH]c1-c1ccc2c(c1)cc(C1CCNC1)n2C.Cl` (centres unmarked) [Cpd 156, 5-ethyl-6-(1-methyl-2-(pyrrolidin-3-yl)-1H-indol-5-yl)-2-oxo-1,2-dihydropyridine-3-carboxylic acid hydrochloride], the MIC lay in the range of 12.5 to 150 µg/mL in assay [1], 12.5 to 150 µg/mL in assay [2], 3.5 to 12.5 µg/mL in assay [3] and 12.5 to 150 µg/mL in assay [4].

In the case of `CCc1cc(C(=O)O)c(=O)[nH]c1-c1ccc2c(c1)cc(C(C)N1CCCC1)n2C` (centres unmarked) [Cpd 157, 5-ethyl-6-(1-methyl-2-(1-(pyrrolidin-1-yl)ethyl)-1H-indol-5-yl)-2-oxo-1,2-dihydropyridine-3-carboxylic acid], the MIC is 12.5 to 150 µg/mL (≈ 31.8 to 381 µM) in assay [1], 12.5 to 150 µg/mL (≈ 31.8 to 381 µM) in assay [2], less than 1 µg/mL in assay [3] and 3.5 to 12.5 µg/mL (≈ 8.89 to 31.8 µM) in assay [4].

With `CCc1cc(C(=O)O)c(=O)[nH]c1-c1ccc2c(cc(CN3CCCC3)n2C)c1F` [Cpd 158, 5-ethyl-6-(4-fluoro-1-methyl-2-(pyrrolidin-1-ylmethyl)-1H-indol-5-yl)-2-oxo-1,2-dihydropyridine-3-carboxylic acid], the minimum inhibitory concentration (MIC) in assay [1] was 12.5 to 150 µg/mL (≈ 31.5 to 377 µM); in assay [2] it was 12.5 to 150 µg/mL (≈ 31.5 to 377 µM); in assay [3], less than 1 µg/mL; in assay [4] it was 1 to 3.5 µg/mL (≈ 2.52 to 8.81 µM).

Consider `CCc1cc(C(=O)O)c(=O)[nH]c1-c1ccc2c(c1)cc(CCN)n2C.Cl` [Cpd 163, 6-(2-(2-aminoethyl)-1-methyl-1H-indol-5-yl)-5-ethyl-2-oxo-1,2-dihydropyridine-3-carboxylic acid hydrochloride], for which the minimal inhibitory concentration (MIC) in assay [1] is 12.5 to 150 µg/mL; in assay [2], 12.5 to 150 µg/mL; in assay [3], less than 1 µg/mL; in assay [4], 12.5 to 150 µg/mL.

`CCc1c(-c2ccc3c(c2)cc(CN2C[C@@H](C)N(C)[C@@H](C)C2)n3C)[nH]c(=O)c(C(=O)O)c1O` [Cpd 170, 5-ethyl-4-hydroxy-6-(1-methyl-2-(((3S,5R)-3,4,5-trimethylpiperazin-1-yl)methyl)-1H-indol-5-yl)-2-oxo-1,2-dihydropyridine-3-carboxylic acid]: the MIC in assay [1] is 12.5 to 150 µg/mL (≈ 27.6 to 331 µM); in assay [2] it was 12.5 to 150 µg/mL (≈ 27.6 to 331 µM); in assay [3], less than 1 µg/mL; in assay [4] it was 3.5 to 12.5 µg/mL (≈ 7.73 to 27.6 µM).

On to `CCc1c(-c2ccc3c(c2)cc(CN2C[C@@H](C)O[C@@H](C)C2)n3C)[nH]c(=O)c(C(=O)O)c1O` [Cpd 172, 6-(2-(((2S,6R)-2,6-dimethylmorpholino)methyl)-1-methyl-1H-indol-5-yl)-5-ethyl-4-hydroxy-2-oxo-1,2-dihydropyridine-3-carboxylic acid], for which the MIC in assay [1] is 12.5 to 150 µg/mL (≈ 28.4 to 341 µM); in assay [2], 3.5 to 12.5 µg/mL (≈ 7.96 to 28.4 µM); in assay [3] it was less than 1 µg/mL; in assay [4] it was 12.5 to 150 µg/mL (≈ 28.4 to 341 µM).

Regarding `CCc1c(-c2ccc3c(c2)cc(CN2CCN(C(C)C)CC2)n3C)[nH]c(=O)c(C(=O)O)c1O` [Cpd 174, 5-ethyl-4-hydroxy-6-(2-((4-isopropylpiperazin-1-yl)methyl)-1-methyl-1H-indol-5-yl)-2-oxo-1,2-dihydropyridine-3-carboxylic acid], the MIC was 12.5 to 150 µg/mL (≈ 27.6 to 331 µM) in assay [1], 3.5 to 12.5 µg/mL (≈ 7.73 to 27.6 µM) in assay [2], less than 1 µg/mL in assay [3] and 1 to 3.5 µg/mL (≈ 2.21 to 7.73 µM) in assay [4].

As for `CCc1c(-c2ccc3c(c2)cc(CN2CCN(C(C)=O)CC2)n3C)[nH]c(=O)c(C(=O)O)c1O` [Cpd 175, 6-(2-((4-acetylpiperazin-1-yl)methyl)-1-methyl-1H-indol-5-yl)-5-ethyl-4-hydroxy-2-oxo-1,2-dihydropyridine-3-carboxylic acid], the MIC in assay [1] was 12.5 to 150 µg/mL (≈ 27.6 to 331 µM); in assay [2] it was 1 to 3.5 µg/mL (≈ 2.21 to 7.73 µM); in assay [3], less than 1 µg/mL; in assay [4] it was 3.5 to 12.5 µg/mL (≈ 7.73 to 27.6 µM).

As to `CCc1c(-c2ccc3c(c2)cc(CN2CCC(F)(F)C2)n3C)[nH]c(=O)c(C(=O)O)c1O` [Cpd 176, 6-(2-((3,3-difluoropyrrolidin-1-yl)methyl)-1-methyl-1H-indol-5-yl)-5-ethyl-4-hydroxy-2-oxo-1,2-dihydropyridine-3-carboxylic acid], the MIC in assay [1] is 12.5 to 150 µg/mL (≈ 29 to 348 µM); in assay [2], 1 to 3.5 µg/mL (≈ 2.32 to 8.11 µM); in assay [3], less than 1 µg/mL; in assay [4], 12.5 to 150 µg/mL (≈ 29 to 348 µM).

Consider `CCc1c(-c2ccc3c(c2)cc(CN2CCC(NC(C)=O)C2)n3C)[nH]c(=O)c(C(=O)O)c1O` (centres unmarked) [Cpd 183, 6-(2-((3-acetamidopyrrolidin-1-yl)methyl)-1-methyl-1H-indol-5-yl)-5-ethyl-4-hydroxy-2-oxo-1,2-dihydropyridine-3-carboxylic acid], for which the MIC was 12.5 to 150 µg/mL (≈ 27.6 to 331 µM) in assay [1], 12.5 to 150 µg/mL (≈ 27.6 to 331 µM) in assay [2], less than 1 µg/mL in assay [3] and 1 to 3.5 µg/mL (≈ 2.21 to 7.73 µM) in assay [4].

`CCc1c(-c2ccc3c(c2)cc(CN2CCC[C@H]2C(=O)OC)n3C)[nH]c(=O)c(C(=O)O)c1O` [Cpd 190, (S)-5-ethyl-4-hydroxy-6-(2-((2-(methoxycarbonyl)pyrrolidin-1-yl)methyl)-1-methyl-1H-indol-5-yl)-2-oxo-1,2-dihydropyridine-3-carboxylic acid]: the MIC was 12.5 to 150 µg/mL (≈ 27.6 to 331 µM) in assay [1], 3.5 to 12.5 µg/mL (≈ 7.72 to 27.6 µM) in assay [2], less than 1 µg/mL in assay [3] and 12.5 to 150 µg/mL (≈ 27.6 to 331 µM) in assay [4].

With `CCc1c(-c2ccc3c(c2)cc(CN2CCC(C(=O)N(C)C)C2)n3C)[nH]c(=O)c(C(=O)O)c1O` (centres unmarked) [Cpd 191, 6-(2-((3-(dimethylcarbamoyl)pyrrolidin-1-yl)methyl)-1-methyl-1H-indol-5-yl)-5-ethyl-4-hydroxy-2-oxo-1,2-dihydropyridine-3-carboxylic acid], the MIC in assay [1] was 12.5 to 150 µg/mL (≈ 26.8 to 322 µM); in assay [2], 3.5 to 12.5 µg/mL (≈ 7.5 to 26.8 µM); in assay [3], less than 1 µg/mL; in assay [4] it was 1 to 3.5 µg/mL (≈ 2.14 to 7.5 µM).

`CCc1c(-c2ccc3c(c2)cc(CN2CC(F)(F)C2)n3C)[nH]c(=O)c(C(=O)O)c1O` [Cpd 195, 6-(2-((3,3-difluoroazetidin-1-yl)methyl)-1-methyl-1H-indol-5-yl)-5-ethyl-4-hydroxy-2-oxo-1,2-dihydropyridine-3-carboxylic acid]: the MIC in assay [1] is 12.5 to 150 µg/mL (≈ 29.9 to 359 µM); in assay [2] it was 1 to 3.5 µg/mL (≈ 2.4 to 8.39 µM); in assay [3], less than 1 µg/mL; in assay [4], 3.5 to 12.5 µg/mL (≈ 8.39 to 29.9 µM).

Turning to `CCc1c(-c2ccc3c(c2)cc(CN2C[C@@H]4[C@H](C2)[C@H]4N(Cc2ccccc2)Cc2ccccc2)n3C)[nH]c(=O)c(C(=O)O)c1O` [Cpd 196, 6-(2-(((1R,5S,6s)-6-(dibenzylamino)-3-azabicyclo[3.1.0]hexan-3-yl)methyl)-1-methyl-1H-indol-5-yl)-5-ethyl-4-hydroxy-2-oxo-1,2-dihydropyridine-3-carboxylic acid], the MIC in assay [1] lay within 12.5 to 150 µg/mL (≈ 20.7 to 249 µM); in assay [2], 12.5 to 150 µg/mL (≈ 20.7 to 249 µM); in assay [3], 3.5 to 12.5 µg/mL (≈ 5.81 to 20.7 µM); in assay [4], 12.5 to 150 µg/mL (≈ 20.7 to 249 µM).

Consider `CCc1c(-c2ccc3c(c2)cc(CN2C[C@@H]4[C@H](C2)[C@H]4N(C)C)n3C)[nH]c(=O)c(C(=O)O)c1O` [Cpd 197, 6-(2-(((1R,5S,6s)-6-(dimethylamino)-3-azabicyclo[3.1.0]hexan-3-yl)methyl)-1-methyl-1H-indol-5-yl)-5-ethyl-4-hydroxy-2-oxo-1,2-dihydropyridine-3-carboxylic acid], for which the MIC was 12.5 to 150 µg/mL (≈ 27.7 to 333 µM) in assay [1], 3.5 to 12.5 µg/mL (≈ 7.77 to 27.7 µM) in assay [2], less than 1 µg/mL in assay [3] and 1 to 3.5 µg/mL (≈ 2.22 to 7.77 µM) in assay [4].
